The nature of data set [1]: Self-assembly behaviour in water (CD, TEM). In kind it is physicochemical. The procedure:
Fig. 2 The structure conformations and self-assembly properties of molecule 1 in aqueous solution. a Illustration of the self-assembly strategy of molecule 1. b CD spectra of molecule 1 and molecule 4 in deionized water at a concentration of 1 μM. c FTIR spectra of molecule 1 in a monomeric state and molecule 4 in a fibrous assembled state. The arrows identify the typical characteristic peaks of the antiparallel β-sheet structure. d TEM image of self-assembled β-sheet nanofibrils of molecule 1 after treatment with caspase-3 (substrate-to-enzyme ratio of 1 μM/U) in HEPES buffer (50 mM, pH 7.4) for 2 h. The manual measurement of the nanofibril diameter is shown in the zoomed image, and the computational simulation result for the length of molecule 4 is inserted. e WAXS and computational simulation results of the β-sheet self-assemblies (molecule 4) identified the β-sheet and laminate spacing of the structures. f The concentration-dependent CD spectra of molecule 4 in the concentration range of 0.5–10 μM. g Time-dependent TEM images of molecule 4 from 10 min to 12 h for monitoring the growth process of the nanofibrous structures. h Temperature-dependent CD intensity changes at 220 nm of molecules 1 and 4 with a heating rate of 1 °C/min and an equilibrium period of 30 s to reveal the self-assembly mechanisms. Scale bar: 100 nm […]
microscopy (UltraVIEW VoX). […]

The subject of data set [2] is human bladder tumour tissues. Put plainly: Ex vivo NIR imaging of human intact bladder after intravesical instillation. To be noted: 70 mL of 50 μM in PBS pH 7.4 instilled, 37 °C, 1 h. On the procedure: After obtaining approval from the institutional review board of the Fourth Hospital of Harbin Medical University, patients with urothelial carcinoma were scheduled for radical cystectomy and appropriate informed consent was obtained. Fresh intact bladder was obtained from the operating room immediately after radical cystectomy and irrigated three times for 5 min via an 18-French (Fr) urinary catheter with sterile saline, and 70 mL of molecule 1 in PBS (50 μM, pH 7.4) was instilled and incubated at 37 °C for 1 h. Then, the unbound molecule 1 was removed by irrigating with sterile saline three times for 5 min, the bladder was opened longitudinally on the anterior wall. Ex vivo fluorescent and white light imaging of the bladder cancer was performed using a near infrared imaging system. To explore the correlation between appearance of fluorescent signal and cancer lesions, standard pathological analysis of represented fluorescent spots were carried out after imaging.

SMILES strings stand for the structures. Where a SMILES comes first, the peptide text is derived from it. The star is where a group is joined. X1 = CC1(C)C(=CC=C2CCCC(C=CC3=[N+](CCCCCC(=O)O)c4ccccc4C3(C)C)=C2*)N(CCCCCC(=O)O)c2ccccc21

On to `CC[C@H](C)[C@H](NC(=O)[C@@H]1CCCN1C(=O)[C@@H](NC(=O)[C@H](C)N)C(C)C)C(=O)N[C@@H](C)C(=O)N[C@@H](CCC(N)=O)C(=O)N[C@@H](CCCCN)C(=O)N[C@@H](CC(=O)O)C(=O)N[C@@H](CCC(=O)O)C(=O)N[C@H](C(=O)N[C@@H](CC(=O)O)C(=O)N[C@@H](CCCCN)C(=O)N[C@@H](CC(C)C)C(=O)N[C@H](C(=O)N[C@@H](Cc1ccccc1)C(=O)N[C@@H](Cc1ccccc1)C(=O)N[C@@H](C)C(=O)N[C@@H](CCC(=O)O)C(=O)N[C@@H](CSC1=C(C=CC2=[N+](CCCCCC(=O)O)c3ccccc3C2(C)C)CCCC1=CC=C1N(CCCCCC(=O)O)c2ccccc2C1(C)C)C(=O)NCC(=O)O)C(C)C)C(C)C` [molecule 1] (H-AVPIAQKDEVDKLVFFAEC(X1)G-OH), for which the “secondary structure by CD” value in data set [1] (1 μM in deionized water) is given as “random coiled conformation”. The “state in water (dissolved or fibrous structures; TEM, CD)” value in data set [1] (deionized water, same conditions, TEM 50 μM, from 1% HFIP, 24 h) is “well-dissolved”. In data set [2], the “signal-to-noise ratio of the tumour area versus surrounding normal tissue” value is “up to 2.7 times”.

(Values after publication PMC6813295, “A tumour-selective cascade activatable self-detained system for drug delivery and cancer imaging” (Nature Communications, 2019).)
